Consider 23 molecules from PubChem BioAssay AID330 (DTP/NCI, 2004).

Molecules are shown by their SMILES. Values joined by “and” are separate entries in the source; they are usually repeats but may differ in a detail not shown here. Equal values may be shown once. Inconclusive results and toxic doses are left out. Square brackets hold non-standard residues; d marks the D form. Peptide text beside a SMILES is read from it. ξ: configuration not given here. Ac5c = NC1(C(=O)O)CCCC1; ξS = NC(CO)C(=O)O

In this assay the test system is P388 leukemia ip, CD2F1 mice, survival T/C. The experiment in a line: NCI In Vivo Anticancer Drug Screen. Data for tumor model P388 Leukemia (intraperitoneal) in CD2F1 (CDF1) mice. To be noted: endpoint: median survival time, higher = longer survival. In short, it runs like this:
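Mice carrying the transplanted tumor received test compound or vehicle. Survival was recorded in each group, and the value is the treated-group measurement divided by that of the vehicle-treated control group.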

[1] abbreviates: dose: 60.0 mg/kg/injection, schedule: Q01DX005 (ip), vehicle: saline with Tween-80.
The mark [2] stands for this setting: dose: 120.0 mg/kg/injection, schedule: Q01DX005 (ip), vehicle: saline with Tween-80.
The mark [3] stands for this setting: dose: 240.0 mg/kg/injection, schedule: Q01DX005 (ip), vehicle: saline with Tween-80.
The mark [4] stands for this setting: dose: 50.0 mg/kg/injection, schedule: Q01DX005 (ip), vehicle: saline.
Where [5] appears, read: dose: 100.0 mg/kg/injection, schedule: Q01DX005 (ip), vehicle: saline.
Setting [6] is: dose: 200.0 mg/kg/injection, schedule: Q01DX005 (ip), vehicle: saline.
Where [7] appears, read: dose: 12.5 mg/kg/injection, schedule: Q01DX005 (ip), vehicle: saline with Tween-80.
Where [8] appears, read: dose: 50.0 mg/kg/injection, schedule: Q01DX005 (ip), vehicle: saline with Tween-80.
Setting [9] is: dose: 60.0 mg/kg/injection, schedule: Q01DX005 (ip), vehicle: Klucel (hydroxypropylcellulose) (HPC).
Setting [10] is: dose: 120.0 mg/kg/injection, schedule: Q01DX005 (ip), vehicle: Klucel (hydroxypropylcellulose) (HPC).

For the molecule `CCOC(=O)Cc1cc(O)c(C(=O)OCC)c(O)c1C(=O)OCC`, the T/C reads like this: (dose: 100.0 mg/kg/injection, schedule: Q01DX001 (ip), vehicle: saline with Tween-80) 105 % of control; (dose: 200.0 mg/kg/injection, schedule: Q01DX001 (ip), vehicle: saline with Tween-80) 105 % of control; (dose: 400.0 mg/kg/injection, schedule: Q01DX001 (ip), vehicle: saline with Tween-80) 99 % of control.

For `NC(=S)NNCCC(=O)Nc1ccccc1C(F)(F)F`, the T/C by setting is: under setting [1], 94 % of control; under setting [2], 94 % of control; under setting [3], 96 % of control.

Consider `CC(=O)SC1C(=O)N(C)C(SC(C)=O)C(=O)N1C` (configuration not stated), for which the T/C was 107 % of control (dose: 6.25 mg/kg/injection, schedule: Q01DX009 (ip), vehicle: saline) and 110 % of control (dose: 12.5 mg/kg/injection, schedule: Q01DX009 (ip), vehicle: saline).

Consider `NC(CO)C(=O)NC1(C(=O)O)CCCC1` (configuration not stated) (H-[ξS]-[Ac5c]-OH), for which the T/C (dose: 100.0 mg/kg/injection, schedule: Q04DX003 (ip), vehicle: saline with Tween-80) was 95 % of control; the T/C (dose: 200.0 mg/kg/injection, schedule: Q04DX003 (ip), vehicle: saline with Tween-80) was 100 % of control; the T/C (dose: 400.0 mg/kg/injection, schedule: Q04DX003 (ip), vehicle: saline with Tween-80) is 120 % of control.

Consider `N#C[S][Hg][c]1ccccc1`, for which the T/C reads like this: under setting [1], 106 % of control; under setting [2], 98 % of control.

Regarding `CCOC(=O)C(CO)NC(=O)C1(NC(C)=O)CCCC1` (configuration not stated) (Ac-[Ac5c]-[ξS]-OEt), the T/C is, setting by setting: under setting [4], 100 % of control; under setting [5], 100 % of control; under setting [6], 100 % of control.

`COC(=O)c1[nH]c(=O)c(C#N)c(C(=O)OC)c1C(=O)c1ccccc1`: the T/C was 99 % of control under setting [1], 99 % of control under setting [2] and 92 % of control under setting [3].

Regarding `CN(/N=C/c1ccc(Cl)cc1)P(=O)(N1CC1)N1CC1`, the T/C (dose: 6.25 mg/kg/injection, schedule: Q01DX005 (ip), vehicle: saline with Tween-80) was 116 % of control; the T/C under setting [7] is 116 % of control; the T/C under setting [8] is 171 % of control.

For the molecule `COc1ccc(C2CC(C)(O)Oc3cc4c(cc32)OCO4)cc1` (configuration not stated), the T/C under setting [9] is 97 % of control and the T/C under setting [10] was 89 % of control.

Take `COc1cc(N)c(S(=O)(=O)O)cc1N=N/C(=N/Nc1cc(S(=O)(=O)O)c(N)cc1OC)C(=O)Nc1ccccc1`: the T/C by setting is: (dose: 50.0 mg/kg/injection, schedule: Q01DX005 (ip), vehicle: Klucel (hydroxypropylcellulose) (HPC)) 107 % of control; (dose: 100.0 mg/kg/injection, schedule: Q01DX005 (ip), vehicle: Klucel (hydroxypropylcellulose) (HPC)) 104 % of control; (dose: 200.0 mg/kg/injection, schedule: Q01DX005 (ip), vehicle: Klucel (hydroxypropylcellulose) (HPC)) 109 % of control.

Turning to `COC(=O)C1=NC(=N)N=C(C(=O)OC)C1(C)C(=O)c1ccc(Cl)cc1` (configuration not stated), the T/C runs as follows: under setting [1], 100 % of control and 104 % of control; under setting [2], 98 % of control; under setting [3], 99 % of control.

For `COc1ccc2c(c1)C=CC1OC(C(C)=O)(C(C)=O)C(C=O)=CN21` (configuration not stated), the T/C reads like this: under setting [1], 92 % of control; under setting [2], 89 % of control; under setting [3], 98 % of control.

On to `NN1C(=O)CC(c2cccc(Cl)c2)C1=O` (configuration not stated), for which the T/C is, setting by setting: under setting [1], 92 % of control; under setting [2], 92 % of control; under setting [3], 92 % of control.

Take `O=C(Nc1cccc(C(F)(F)F)c1)c1cc2cc(Br)ccc2oc1=O`: the T/C by setting is: under setting [9], 102 % of control; under setting [10], 96 % of control; (dose: 240.0 mg/kg/injection, schedule: Q01DX005 (ip), vehicle: Klucel (hydroxypropylcellulose) (HPC)) 92 % of control.

Take `O=C(CCS(=O)(=O)CCC(=O)c1cccs1)c1cccs1`: the T/C is 90 % of control (dose: 100.0 mg/kg/injection, schedule: Q04DX003 (ip), vehicle: saline); 90 % of control (dose: 200.0 mg/kg/injection, schedule: Q04DX003 (ip), vehicle: saline); 90 % of control (dose: 400.0 mg/kg/injection, schedule: Q04DX003 (ip), vehicle: saline).

Turning to `CC(C)CC(NC(=O)C(C)N)C(N)=O` (configuration not stated), the T/C was 99 % of control under setting [4], 103 % of control under setting [5] and 96 % of control under setting [6].

Consider `COc1cccc2c1C(=O)c1c(O)c3c(c(O)c1C2=O)CC(O)(/C(C)=N/NC(=O)CCCCCC(=O)N/N=C(\C)C1(O)Cc2c(O)c4c(c(O)c2C(OC2CC(N)C(O)C(C)O2)C1)C(=O)c1c(OC)cccc1C4=O)CC3OC1CC(N)C(O)C(C)O1` (configuration not stated), for which the T/C is 158 % of control (dose: 0.78 mg/kg/injection, schedule: Q01DX009 (ip), vehicle: water); 157 % of control and 163 % of control (dose: 1.56 mg/kg/injection, schedule: Q01DX009 (ip), vehicle: water); 153 % of control and 154 % of control (dose: 3.13 mg/kg/injection, schedule: Q01DX009 (ip), vehicle: water); 200 % of control and 202 % of control (dose: 6.25 mg/kg/injection, schedule: Q01DX009 (ip), vehicle: water); 88 % of control and 93 % of control (dose: 12.5 mg/kg/injection, schedule: Q01DX009 (ip), vehicle: water).

Take `N#Cc1c(=O)[nH]nc2c3ccccc3c3ccccc3c12`: the T/C runs as follows: (dose: 100.0 mg/kg/injection, schedule: Q04DX002 (ip), vehicle: saline with Tween-80) 92 % of control; (dose: 200.0 mg/kg/injection, schedule: Q04DX002 (ip), vehicle: saline with Tween-80) 95 % of control; (dose: 400.0 mg/kg/injection, schedule: Q04DX002 (ip), vehicle: saline with Tween-80) 96 % of control.

For the molecule `O=C(Nc1ccccc1)N1c2ccccc2SC1c1ccco1` (configuration not stated), the T/C is 101 % of control under setting [8]; 100 % of control (dose: 100.0 mg/kg/injection, schedule: Q01DX005 (ip), vehicle: saline with Tween-80); 92 % of control (dose: 200.0 mg/kg/injection, schedule: Q01DX005 (ip), vehicle: saline with Tween-80).

`C(=N\N=C1c2ccccc2-c2ccccc21)/c1ccc2ccc3cccc4ccc1c2c34`: the T/C reads like this: under setting [7], 93 % of control; (dose: 25.0 mg/kg/injection, schedule: Q01DX005 (ip), vehicle: saline with Tween-80) 95 % of control; (dose: 30.0 mg/kg/injection, schedule: Q01DX005 (ip), vehicle: saline with Tween-80) 88 % of control; under setting [8], 91 % of control; under setting [1], 86 % of control; under setting [2], 88 % of control. Further, the T/C under setting [3] was 89 % of control.

`O=C(Nc1ccc(Br)cc1)c1ccccc1`: the T/C runs as follows: (dose: 100.0 mg/kg/injection, schedule: Q01DX009 (ip), vehicle: saline with Tween-80) 95 % of control; (dose: 200.0 mg/kg/injection, schedule: Q01DX009 (ip), vehicle: saline with Tween-80) 90 % of control; (dose: 400.0 mg/kg/injection, schedule: Q01DX009 (ip), vehicle: saline with Tween-80) 100 % of control.

In the case of `Clc1cc2c(c(CSc3nc4ccccc4n4cccc34)c1)OCOC2`, the T/C is 96 % of control (dose: 50.0 mg/kg/injection, schedule: Q01DX009 (ip), vehicle: Klucel (hydroxypropylcellulose) (HPC)); 96 % of control (dose: 100.0 mg/kg/injection, schedule: Q01DX009 (ip), vehicle: Klucel (hydroxypropylcellulose) (HPC)); 98 % of control (dose: 200.0 mg/kg/injection, schedule: Q01DX009 (ip), vehicle: Klucel (hydroxypropylcellulose) (HPC)).

On to `O=[N+]([O-])/C=C\c1ccc(/C=C/[N+](=O)[O-])cc1`, for which the T/C by setting is: (dose: 1.25 mg/kg/injection, schedule: Q01DX009 (ip), vehicle: saline) 103 % of control and 107 % of control; (dose: 1.25 mg/kg/injection, schedule: Q01DX009 (ip), vehicle: suspension in saline) 103 % of control; (dose: 2.5 mg/kg/injection, schedule: Q01DX009 (ip), vehicle: saline) 100 % of control and 108 % of control; (dose: 2.5 mg/kg/injection, schedule: Q01DX009 (ip), vehicle: suspension in saline) 116 % of control; (dose: 5.0 mg/kg/injection, schedule: Q01DX009 (ip), vehicle: saline) 104 % of control and 107 % of control; (dose: 5.0 mg/kg/injection, schedule: Q01DX009 (ip), vehicle: suspension in saline) 114 % of control. In addition, the T/C is 106 % of control and 116 % of control (dose: 10.0 mg/kg/injection, schedule: Q01DX009 (ip), vehicle: saline); 116 % of control (dose: 10.0 mg/kg/injection, schedule: Q01DX009 (ip), vehicle: suspension in saline).
